# Peptide text beside a SMILES is read from it.
# Assays:
# [1] = Stability in mouse plasma, peptides 10 uM (Example 15); assay type: in vitro ADME; conditions: mouse plasma 37° C., peptide 10 uM; for remaining at 0.25 h, 10 uM / remaining at 0.5 h, 10 uM / remaining at 1 h, 10 uM / remaining at 2 h, 10 uM / remaining at 3 h, 10 uM: pooled mouse plasma; for remaining at 0.25 h, 10 uM: 15 min, read-out: % Remaining at Each Time Point: 15 min; for remaining at 0.5 h, 10 uM: 30 min, read-out: % Remaining at Each Time Point: 30 min; for remaining at 1 h, 10 uM: 60 min, read-out: % Remaining at Each Time Point: 60 min; for remaining at 2 h, 10 uM: 120 min, read-out: % Remaining at Each Time Point: 120 min; for remaining at 3 h, 10 uM: 180 min, read-out: % Remaining at Each Time Point: 180 min
# Procedure: Peptides (10 uM) were incubated in pooled mouse plasma at 37° C. and samples were removed and immediately analyzed for the concentration of intact peptide by LC/MS/MS over the course of 3 hours. The percent of peptide remaining in plasma at each time point was calculated relative to the initial peak area (Table 13).
# 3T3-L1 Adipocytes = experiment: Free fatty acid levels in cultured mouse 3T3-L1 adipocytes, isoproterenol stimulated (Example 2); assay type: cell-based; conditions: test peptides 25 μM; isoproterenol 1 nM
# Procedure, shortened: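 Release of free fatty acids, read at 540 nm, was stimulated with 1 nM isoproterenol for 3 h in mouse 3T3-L1 adipocytes (12–17 days of differentiation). Cells were pre-exposed to 25 μM peptide for 18–20 h plus 1 h, with peptide kept in during stimulation. Values are background-subtracted and normalised to isoproterenol alone.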
Compound,% Remaining at Each Time Point: 0 min [1],"remaining at 0.25 h, 10 uM [1]","remaining at 0.5 h, 10 uM [1]","remaining at 1 h, 10 uM [1]","remaining at 2 h, 10 uM [1]","remaining at 3 h, 10 uM [1]",Free Fatty Acid Levels in 3T3-L1 Adipocytes Expressed as a Percent of Isoproterenol Control: Percent of Control Value (3T3-L1 Adipocytes)
CC[C@H](C)[C@H](NC(=O)[C@H](Cc1ccc(O)cc1)NC(=O)[C@H](CC(N)=O)NC(=O)[C@H](CCSC)NC(=O)[C@H](CCC(=O)O)NC(=O)[C@H](CCC(N)=O)NC(=O)[C@H](Cc1c[nH]c2ccccc12)NC(=O)[C@H](CCCNC(=N)N)NC(=O)[C@@H](C)N)C(=O)N[C@@H](Cc1ccccc1)C(=O)N[C@@H](Cc1ccc(O)cc1)C(=O)N1CCC[C@H]1C(=O)N[C@@H](CCCNC(=N)N)C(=O)O [compound 288] (HELM PEPTIDE1{[dA].R.W.Q.E.M.N.Y.I.F.Y.P.R}$$$$V2.0),100%,90%,81.9%,77.4%,69.2%,67%,93.0%
CCCCCCCCCCCCCCCC(=O)N[C@@H](CCSC)C(=O)N[C@@H](CCCNC(=N)N)C(=O)N[C@@H](Cc1c[nH]c2ccccc12)C(=O)N[C@@H](CCC(N)=O)C(=O)N[C@@H](CCC(=O)O)C(=O)N[C@@H](CCSC)C(=O)N[C@@H](CC(N)=O)C(=O)N[C@@H](Cc1ccc(O)cc1)C(=O)N[C@H](C(=O)N[C@@H](Cc1ccccc1)C(=O)N[C@@H](Cc1ccc(O)cc1)C(=O)N1CCC[C@H]1C(=O)N[C@@H](CCCNC(=N)N)C(=O)O)[C@@H](C)CC [compound 289] (HELM PEPTIDE1{[CCCCCCCCCCCCCCCC(=O)[*:2]].M.R.W.Q.E.M.N.Y.I.F.Y.P.R}$$$$V2.0),100%,82.9%,74.6%,78.4%,77.2%,75.6%,94.5%
Ac-MRWQEMNYIFYPR-OH [compound 286],100%,88.4%,74.7%,57.1%,36.4%,25.9%,94.8%
H-MEWQEMGYIFYPRKLR-OH [compound 169],–,–,–,–,–,–,49.2%
H-MGWQEMGYIFYPRKLR-OH [compound 77],–,–,–,–,–,–,112.5%
H-MGYIFYPRKLR-OH [compound 42],–,–,–,–,–,–,115.2%
H-MKWQEMGYIFYPRKLR-OH [compound 122],–,–,–,–,–,–,52.1%
H-MREQEMGYIFYPRKLR-OH [compound 170],–,–,–,–,–,–,48.0%
H-MRWEEMGYIFYPRKLR-OH [compound 171],–,–,–,–,–,–,45.9%
H-MRWNEMGYIFYPRKLR-OH [compound 127],–,–,–,–,–,–,55.6%
H-MRWQDMGYIFYPRRLR-OH [compound 126],–,–,–,–,–,–,55.6%
H-MRWQEMEYIFYPRKLR-OH [compound 173],–,–,–,–,–,–,43.9%
H-MRWQEMGEIFEPRKLR-OH [compound 134],–,–,–,–,–,–,56.2%
H-MRWQEMGEIFYPRKLR-OH [compound 174],–,–,–,–,–,–,38.8%
H-MRWQEMGYEFYPRKLR-OH [compound 175],–,–,–,–,–,–,50.6%
H-MRWQEMGYIEYPRKLR-OH [compound 176],–,–,–,–,–,–,57.0%
H-MRWQEMGYIF-OH [compound 50],–,–,–,–,–,–,97.4%
H-MRWQEMGYIFEPRKLR-OH [compound 177],–,–,–,–,–,–,61.4%
H-MRWQEMGYIFY-OH [compound 49],–,–,–,–,–,–,103.3%

Compound,% Remaining at Each Time Point: 0 min [1],"remaining at 0.25 h, 10 uM [1]","remaining at 0.5 h, 10 uM [1]","remaining at 1 h, 10 uM [1]","remaining at 2 h, 10 uM [1]","remaining at 3 h, 10 uM [1]",Free Fatty Acid Levels in 3T3-L1 Adipocytes Expressed as a Percent of Isoproterenol Control: Percent of Control Value (3T3-L1 Adipocytes)
H-MRWQEMGYIFYERKLR-OH [compound 178],–,–,–,–,–,–,67.6%
H-MRWQEMGYIFYP-OH [compound 48],–,–,–,–,–,–,57.1%
H-MRWQEMGYIFYPEKLR-OH [compound 179],–,–,–,–,–,–,47.2%
H-MRWQEMGYIFYPKKLR-OH [compound 123],–,–,–,–,–,–,58.8%
H-MRWQEMGYIFYPRELR-OH [compound 180],–,–,–,–,–,–,47.0%
H-MRWQEMGYIFYPRKER-OH [compound 181],–,–,–,–,–,–,58.9%
H-MRWQEMGYIFYPRKLE-OH [compound 182],–,–,–,–,–,–,36.6%
H-MRWQEMGYIFYPRKLK-OH [compound 124],–,–,–,–,–,–,68.9%
H-MRWQEMGYIFYPRRLR-OH [compound 125],–,–,–,–,–,–,50.2%
H-MRWQEMNYIFYP-NH2 [compound 287],100%,64%,45.2%,26.8%,8.76%,2.93%,78.1%
H-MRWQEMNYIFYP-OH [compound 282],100%,34.9%,25.7%,1.92%,0.41%,0.29%,71.8%
H-QEMGYIFYPRKL-OH [compound 270],100%,13.8%,3.22%,0.59%,0.36%,0.21%,66.9%
H-RWQEENYIAYPR-OH [compound 260],100%,79.4%,68.8%,53.1%,35.7%,35.9%,75.9%
H-RWQEEQYIAEPR-OH [compound 266],100%,70.7%,72.3%,38.3%,74.8%,51.1%,72.7%
H-RWQEEQYIAYPR-OH [compound 265],100%,83.3%,74.5%,54.9%,56%,51.7%,66.7%
H-RWQEEQYIFEPR-OH [compound 264],100%,76.7%,68.2%,54.5%,59.4%,56.1%,63.2%
H-RWQEMGYIFYPRKL-OH [compound 268],100%,76.1%,49.5%,20.3%,0.48%,0%,41.9%
H-RWQEMNYIFYPR-OH [compound 248],–,–,–,–,–,–,50.4%

# Reference: patent US11753445B2, “Therapeutic peptides” (COHBAR, INC., priority 2016, dated 2023)
